This assay concerns the target human TRPV4 (Homo sapiens (Human), UniProt Q9HBA0). The experiment in a line: FLIPR assay for hTRPV4 expressed in BHK cells. Format: cell-based. To be noted: inhibition of Agonist Compound (EC80)-induced calcium signal; BHK/AC9 cells expressing human TRPV4; read-out: IC50. As to the method: FLIPR Assay for hTRPV4 Expressed in BHK Cells:
TRPV4 channel activation results in an influx of divalent and monovalent cations including calcium. The resulting changes in intracellular calcium were monitored using a calcium specific fluorescent dye Fluo-4 (MDS Analytical Technologies). BHK/AC9 cells transduced with BacMam virus expressing the human TRPV4 gene at a MOI of 78 were plated in a 384 well poly-D lysine coated plate (15,000 cells/well in 50 μL culture medium containing DMEM/F12 with 15 mM HEPES, 10% FBS, 1% Penicillin-Streptomycin and 1% L-glutamine). Cells were incubated for 24 hours at 37° C. and 5% CO2. Culture medium was then aspirated using a Tecan plate-washer and replaced with 20 μL/well of dye loading buffer: HBSS, 500 μM Brilliant Black (MDS Analytical Technologies), and 2 μM Fluo-4 AM. Dye loaded plates were then incubated in the dark at room temperature for 1˜1.5 hours.

Chain of human TRPV4 (Q9HBA0 whole entry): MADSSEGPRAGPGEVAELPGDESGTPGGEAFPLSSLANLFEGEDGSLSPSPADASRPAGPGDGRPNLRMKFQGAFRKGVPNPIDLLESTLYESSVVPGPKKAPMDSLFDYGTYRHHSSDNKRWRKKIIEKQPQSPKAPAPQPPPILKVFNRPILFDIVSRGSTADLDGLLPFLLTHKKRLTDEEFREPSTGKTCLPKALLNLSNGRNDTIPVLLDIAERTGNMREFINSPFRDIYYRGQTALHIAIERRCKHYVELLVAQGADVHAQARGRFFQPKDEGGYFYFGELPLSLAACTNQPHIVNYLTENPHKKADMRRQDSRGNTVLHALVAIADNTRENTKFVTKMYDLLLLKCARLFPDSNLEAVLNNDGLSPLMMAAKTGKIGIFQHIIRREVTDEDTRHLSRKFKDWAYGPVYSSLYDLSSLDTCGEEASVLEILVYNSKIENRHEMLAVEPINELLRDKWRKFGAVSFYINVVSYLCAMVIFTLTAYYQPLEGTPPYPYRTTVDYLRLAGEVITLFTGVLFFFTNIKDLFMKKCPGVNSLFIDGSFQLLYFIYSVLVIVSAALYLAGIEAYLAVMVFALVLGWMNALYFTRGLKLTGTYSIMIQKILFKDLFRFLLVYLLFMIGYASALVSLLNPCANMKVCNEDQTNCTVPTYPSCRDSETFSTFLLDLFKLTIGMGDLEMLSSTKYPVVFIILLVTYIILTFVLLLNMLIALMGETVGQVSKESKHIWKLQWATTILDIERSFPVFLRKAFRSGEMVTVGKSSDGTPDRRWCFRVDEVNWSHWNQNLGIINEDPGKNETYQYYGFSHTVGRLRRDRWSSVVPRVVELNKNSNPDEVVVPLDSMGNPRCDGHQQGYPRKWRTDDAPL

For `O=S(=O)(c1ccc(Cl)c(F)c1)[C@H]1CN(S(=O)(=O)c2ccc(Cl)cc2Cl)C[C@]1(O)CO` [Example 76, (3S,4S)-4-((4-chloro-3-fluorophenyl)sulfonyl)-1-((2,4-dichlorophenyl)sulfonyl)-3-(hydroxymethyl)pyrrolidin-3-ol], the IC50 was 10 to 100 nM. Take `N#Cc1c(F)cc(S(=O)(=O)[C@H]2CN(S(=O)(=O)c3ccc(Cl)cc3Cl)C[C@@]2(O)CO)cc1F` [Example 87, 4-(((3S,4R)-1-((2,4-dichlorophenyl)sulfonyl)-4-hydroxy-4-(hydroxymethyl)pyrrolidin-3-yl)sulfonyl)-2,6-difluorobenzonitrile]: the concentration for half-maximal inhibition (IC50) was 0.1 to 10 nM.

Take `N#Cc1ccc(S(=O)(=O)[C@H]2CN(S(=O)(=O)c3ccc(Cl)cc3C#N)C[C@@]2(O)CO)cc1` [Example 84, 5-chloro-2-(((3R,4S)-4-((4-cyanophenyl)sulfonyl)-3-hydroxy-3-(hydroxymethyl)pyrrolidin-1-yl)sulfonyl)benzonitrile]: the IC50 was 0.1 to 10 nM. On to `O=S(=O)(c1ccc(Cl)nc1)[C@H]1CN(S(=O)(=O)c2ccc(C(F)(F)F)cc2Cl)C[C@@]1(O)CO` [Example 99, (3R,4S)-1-((2-chloro-4-(trifluoromethyl)phenyl)sulfonyl)-4-((6-chloropyridin-3-yl)sulfonyl)-3-(hydroxymethyl)pyrrolidin-3-ol], for which the IC50 was 10 to 100 nM. Take `COc1cc(Cl)ccc1S(=O)(=O)N1C[C@H](S(=O)(=O)c2ccc(C#N)cc2)[C@](O)(CO)C1` [Example 51, 4-(((3S,4R)-1-((4-chloro-2-methoxyphenyl)sulfonyl)-4-hydroxy-4-(hydroxymethyl)pyrrolidin-3-yl)sulfonyl)benzonitrile]: the IC50 is 10 to 100 nM.

For `O=S(=O)(c1ccc(Cl)c(F)c1)[C@H]1CN(S(=O)(=O)c2ccc(C(F)(F)F)cc2Cl)C[C@@]1(O)CO` [Example 98, (3R,4S)-4-((4-chloro-3-fluorophenyl)sulfonyl)-1-((2-chloro-4-(trifluoromethyl)phenyl)sulfonyl)-3-(hydroxymethyl)pyrrolidin-3-ol], the IC50 lay in the range of 10 to 100 nM. Consider `N#Cc1ccc(S(=O)(=O)[C@H]2CN(S(=O)(=O)c3ccc(Cl)cc3Cl)C[C@]2(O)CO)cc1F` [Example 75, 4-(((3S,4S)-1-((2,4-dichlorophenyl)sulfonyl)-4-hydroxy-4-(hydroxymethyl)pyrrolidin-3-yl)sulfonyl)-2-fluorobenzonitrile], for which the half-maximal inhibitory concentration (IC50) lay within 0.1 to 10 nM.

Take `N#Cc1ccc(S(=O)(=O)N2C[C@H](S(=O)(=O)c3ccc(Cl)cc3)[C@](O)(CO)C2)c(OC2CC2)c1` [Example 50, 4-(((3R,4S)-4-((4-chlorophenyl)sulfonyl)-3-hydroxy-3-(hydroxymethyl)pyrrolidin-1-yl)sulfonyl)-3-cyclopropoxybenzonitrile]: the IC50 fell in the range of 10 to 100 nM. For the molecule `Cc1nc(C(F)(F)F)ccc1S(=O)(=O)N1C[C@H](S(=O)(=O)c2ccc(C#N)c(F)c2)[C@](O)(CO)C1` [Example 72, 2-fluoro-4-(((3S,4R)-4-hydroxy-4-(hydroxymethyl)-1-((2-methyl-6-(trifluoromethyl)pyridin-3-yl)sulfonyl)pyrrolidin-3-yl)sulfonyl)benzonitrile], the IC50 fell in the range of 10 to 100 nM. For the molecule `N#Cc1ccc(S(=O)(=O)N2C[C@H](S(=O)(=O)c3ccc(Cl)cc3)[C@](O)(CN)C2)cc1` [Example 126, 4-(((3S,4S)-3-(aminomethyl)-4-((4-chlorophenyl)sulfonyl)-3-hydroxypyrrolidin-1-yl)sulfonyl)benzonitrile], the half-inhibitory concentration (IC50) was in the range of 10 to 100 nM. Take `N#Cc1ccc(S(=O)(=O)[C@H]2CN(S(=O)(=O)c3ccc(C(F)F)cc3Cl)C[C@@]2(O)CO)cc1` [Example 42, 4-(((3S,4R)-1-((2-chloro-4-(difluoromethyl)phenyl)sulfonyl)-4-hydroxy-4-(hydroxymethyl)pyrrolidin-3-yl)sulfonyl)benzonitrile]: the IC50 lay in the range of 10 to 100 nM. `C[C@@H](O)[C@]1(O)CN(S(=O)(=O)c2ccc(C#N)cc2Cl)C[C@@H]1S(=O)(=O)c1ccc(Cl)cn1` [Example 120, 3-chloro-4-(((3R,4S)-4-((5-chloropyridin-2-yl)sulfonyl)-3-hydroxy-3-((R)-1-hydroxyethyl)pyrrolidin-1-yl)sulfonyl)benzonitrile]: the IC50 lay in the range of 0.1 to 10 nM. As for `COc1cc(C#N)ccc1S(=O)(=O)N1C[C@H](S(=O)(=O)c2ccc(Cl)cc2)[C@](O)(CO)C1` [Example 35, 4-(((3R,4S)-4-((4-chlorophenyl)sulfonyl)-3-hydroxy-3-(hydroxymethyl)pyrrolidin-1-yl)sulfonyl)-3-methoxybenzonitrile], the figure is 0.1 to 10 nM.

On to `N#Cc1ccc(S(=O)(=O)[C@H]2CN(S(=O)(=O)c3cc(F)c(Cl)cc3Cl)C[C@]2(O)CO)cc1F` [Example 9, 4-(((3S,4S)-1-((2,4-dichloro-5-fluorophenyl)sulfonyl)-4-hydroxy-4-(hydroxymethyl)pyrrolidin-3-yl)sulfonyl)-2-fluorobenzonitrile], for which the IC50 is 10 to 100 nM. `O=S(=O)(c1ccc(F)c(F)c1)[C@H]1CN(S(=O)(=O)c2ccc(Cl)cc2Cl)C[C@@]1(O)CO` [Example 85, (3R,4S)-1-((2,4-dichlorophenyl)sulfonyl)-4-((3,4-difluorophenyl)sulfonyl)-3-(hydroxymethyl)pyrrolidin-3-ol]: the half-maximal inhibitory concentration (IC50) was in the range of 10 to 100 nM. In the case of `N#Cc1ccc(S(=O)(=O)[C@H]2CN(S(=O)(=O)c3ccc(Cl)cc3Br)C[C@@]2(O)CO)cc1` [Example 59, 4-(((3S,4R)-1-((2-bromo-4-chlorophenyl)sulfonyl)-4-hydroxy-4-(hydroxymethyl)pyrrolidin-3-yl)sulfonyl)benzonitrile], the half-inhibitory concentration (IC50) fell in the range of 0.1 to 10 nM. As for `C[C@H](O)[C@]1(O)CN(S(=O)(=O)c2ccc(C#N)cc2Cl)C[C@@H]1S(=O)(=O)c1ccc(Cl)cn1` [Example 119, 3-chloro-4-(((3R,4S)-4-((5-chloropyridin-2-yl)sulfonyl)-3-hydroxy-3-((S)-1-hydroxyethyl)pyrrolidin-1-yl)sulfonyl)benzonitrile], the figure is 0.1 to 10 nM; as for `N#Cc1ccc(S(=O)(=O)N2C[C@H](S(=O)(=O)c3ccc(Cl)cn3)[C@@](O)(CO)C2)c(Cl)c1` [Example 109, 3-chloro-4-(((3S,4S)-4-((5-chloropyridin-2-yl)sulfonyl)-3-hydroxy-3-(hydroxymethyl)pyrrolidin-1-yl)sulfonyl)benzonitrile], 10 to 100 nM; as for `N#Cc1ccc(S(=O)(=O)N2C[C@H](S(=O)(=O)c3nccs3)[C@](O)(CO)C2)c(Cl)c1` [Example 68, 3-chloro-4-(((3R,4S)-3-hydroxy-3-(hydroxymethyl)-4-(thiazol-2-ylsulfonyl)pyrrolidin-1-yl)sulfonyl)benzonitrile], 10 to 100 nM. On to `N#Cc1cc(S(=O)(=O)[C@H]2CN(S(=O)(=O)c3ccc(Cl)cc3Cl)C[C@@]2(O)CO)ccc1Cl` [Example 103, 2-chloro-5-(((3S,4R)-1-((2,4-dichlorophenyl)sulfonyl)-4-hydroxy-4-(hydroxymethyl)pyrrolidin-3-yl)sulfonyl)benzonitrile], for which the IC50 lay within 10 to 100 nM. As to `N#Cc1ccc(S(=O)(=O)N2C[C@H](S(=O)(=O)c3ccc(Cl)cc3)[C@](O)(CO)C2)c(C(F)F)c1` [Example 48, 4-(((3R,4S)-4-((4-chlorophenyl)sulfonyl)-3-hydroxy-3-(hydroxymethyl)pyrrolidin-1-yl)sulfonyl)-3-(difluoromethyl)benzonitrile], the half-inhibitory concentration (IC50) was 0.1 to 10 nM. With `N#Cc1cc(C(F)(F)F)ccc1S(=O)(=O)N1C[C@H](S(=O)(=O)c2ccc(Cl)cc2)[C@](O)(CO)C1` [Example 117, 2-(((3R,4S)-4-((4-chlorophenyl)sulfonyl)-3-hydroxy-3-(hydroxymethyl)pyrrolidin-1-yl)sulfonyl)-5-(trifluoromethyl)benzonitrile], the IC50 is 0.1 to 10 nM. Next, `N#Cc1ccc(S(=O)(=O)[C@H]2CN(S(=O)(=O)c3ccc(C(F)(F)F)cc3Cl)C[C@@]2(O)CO)cc1F` [Example 14, 4-(((3S,4R)-1-((2-chloro-4-(trifluoromethyl)phenyl)sulfonyl)-4-hydroxy-4-(hydroxymethyl)pyrrolidin-3-yl)sulfonyl)-2-fluorobenzonitrile]: 0.1 to 10 nM; `N#Cc1ccc(S(=O)(=O)[C@H]2CN(S(=O)(=O)c3cc(F)c(Cl)cc3Cl)C[C@@]2(O)CO)cc1` [Example 63, 4-(((3S,4R)-1-((2,4-dichloro-5-fluorophenyl)sulfonyl)-4-hydroxy-4-(hydroxymethyl)pyrrolidin-3-yl)sulfonyl)benzonitrile]: 10 to 100 nM; `N#Cc1ccc(S(=O)(=O)N2C[C@H](S(=O)(=O)c3ccc(C(F)(F)F)nc3)[C@](O)(CO)C2)c(Cl)c1` [Example 26, 3-chloro-4-(((3R,4S)-3-hydroxy-3-(hydroxymethyl)-4-((6-(trifluoromethyl)pyridin-3-yl)sulfonyl)pyrrolidin-1-yl)sulfonyl)benzonitrile]: 10 to 100 nM. Consider `O=S(=O)(c1ccc(Cl)cc1)[C@H]1CN(S(=O)(=O)c2ccc(C(F)F)cc2Cl)C[C@@]1(O)CO` [Example 37, (3R,4S)-1-((2-chloro-4-(difluoromethyl)phenyl)sulfonyl)-4-((4-chlorophenyl)sulfonyl)-3-(hydroxymethyl)pyrrolidin-3-ol], for which the IC50 lay within 10 to 100 nM.

As for `Cc1ccc(S(=O)(=O)N2C[C@H](S(=O)(=O)c3ccc(C#N)c(F)c3)[C@](O)(CO)C2)c(Cl)c1` [Example 13, 4-(((3S,4R)-1-((2-chloro-4-methylphenyl)sulfonyl)-4-hydroxy-4-(hydroxymethyl)pyrrolidin-3-yl)sulfonyl)-2-fluorobenzonitrile], the half-maximal inhibitory concentration (IC50) lay within 0.1 to 10 nM.

The values above are taken from patent US11260049B2, “TRPV4 antagonists” (GlaxoSmithKline Intellectual Property (No. 2) Limited, priority 2016, dated 2022).
